Data from patent US20050229260A1, “Compound screens relating to insulin deficiency or insulin resistance” (DevGen NV, priority 2000, published 2005).

Legend:
[1] = target: protein phosphatase 2A; conditions: protein phosphatase 2A inhibitor; cited from earlier work
[2] = system: PTP; conditions: PTP inhibitor; cited from earlier work
[3] = system: C. elegans strain DR1564: daf-2(m41)
Description: All screening was done at 20 μM compound concentration in quadruplicates, except 2000 compounds of Diverset in triplicates. Confirmation was done at 4 concentrations. Questionable dose responses were repeated, if necessary at lower concentrations and/or 2 fold dilution steps. All worms that bypassed dauer stage, L4s and adults, were counted under a Leica MZ12 dissection scope and together referred to as number of adults per well. […] Data were transferred to Excel files and average and variance of the 8 controls of each plate calculated and plotted.
The number of wells was plotted against the number of adults per well and a negative binomial distribution fitted by maximum likelihood. […]
Then the number of adults per well where the cumulative negative binomial distribution was closest to 99% was determined and referred to as 1% cut-off. […]
The plates were then screened through quickly to find wells with a high number adults, which were counted and if found to reach the cut-off value the position on the lid was circled and the exact value written in the circle. […] Finally the transparent lids of the 4 replicate plates were stacked on top of each other and by looking through them it was determined whether 2 or more lids were circled in any position. […]

CC1(C(=O)O)C2CCC(O2)C1(C)C(=O)O (stereo not drawn) [Cantharidic acid]
IC50 [1]: 0.053 µM

CN(N=O)c1cc(O)ccc1O [Dephostatin]
IC50 [2]: 7.7 µM

COC[C@H]1OC(=O)c2coc3c2[C@@]1(C)C1=C(C3=O)[C@@H]2CCC(=O)[C@@]2(C)C[C@H]1OC(C)=O [Wortmannin]
active in the assay [3]: active
